Legend:
human STING = human STING (Homo sapiens, UniProt Q86WV6); assay: Fluorescence Thermal Shift assay (hSTING FTS binding assay); conditions: STING 0.1 mg/ml, 20 min preincubation, SyproOrange
Experimental: Compounds of the present invention were tested for binding to human STING in Fluorescence Thermal Shift assay. STING was preincubated with the compounds for 20 minutes in 50 mM Hepes, 150 mM NaCl, pH 7.5 in 16 μl volume, following by adding 4 μl of SyproOrange dye dilution (ThermoFisher, cat no. S-6651). Final STING concentration was 0.1 mg/ml. Thermal unfolding was performed in Real-Time PCR QuantStudio 6 Flex System (Applied Biosystems), from 25 to 99° C., with continuous ramp mode and ramp rate 0.033° C./s. The data were analyzed using Protein Thermal Shift Software (ThermoFisher).

[1] = tested on: interferon regulatory factor (IRF) pathway in THP-1 dual cells; assay: THP-1 Dual reporter assay, IRF pathway (luciferase); format: cell-based; conditions: Homo sapiens, THP1-Dual; 18 h stimulation, luminescence
Experimental: (§1) Compounds of the present invention were tested for their activity using THP-1 dual cells (Invivogen, cat no. thpd-nfis) allowing for simultaneous study of NF-κB pathway and the interferon regulatory factor (IRF) pathway. THP-1 dual cells contain luciferase reporter gene under the control of an ISG54 (interferon-stimulated gene) minimal promoter in conjunction with five interferon-stimulated response elements and a secreted embryonic alkaline phosphatase reporter gene under the control an IFN (interferon)-β minimal promoter fused to five copies of the NF-κB consensus transcriptional response element with three copies of the c-Rel binding site. Following 18 h of stimulation with STING agonist, medium was collected and transferred onto fresh cell culture plate. To verify activity of the IRF pathway, luminescence activity was measured with standard laboratory plate reader immediately after addition 10 μl of the medium to 50 μl (or 40 μl) of luminescence reagent (Invivogen, cat. No. rep-qlc2). To verify activity of NF-κB pathway, 20 μl (or 10 μl) of the medium was mixed with 80 μl of a detection medium (Invivogen, cat. No. rep-qb2) and incubated for 2 hours (or 1 hour) at 37° C. in a humidified atmosphere containing 5% CO2. Next, absorbance at 630 nm (or 655 nm) was recorded using standard laboratory plate reader.

[2] = tested on: NF-κB pathway in THP-1 dual cells; assay: THP-1 Dual reporter assay, NF-κB pathway (SEAP); format: cell-based; conditions: Homo sapiens, THP1-Dual; 18 h stimulation, absorbance; read-out: THP1 Dual EC50 (μM) NFkB
Experimental: as §1

human STING, sequence (Q86WV6 whole entry H232R): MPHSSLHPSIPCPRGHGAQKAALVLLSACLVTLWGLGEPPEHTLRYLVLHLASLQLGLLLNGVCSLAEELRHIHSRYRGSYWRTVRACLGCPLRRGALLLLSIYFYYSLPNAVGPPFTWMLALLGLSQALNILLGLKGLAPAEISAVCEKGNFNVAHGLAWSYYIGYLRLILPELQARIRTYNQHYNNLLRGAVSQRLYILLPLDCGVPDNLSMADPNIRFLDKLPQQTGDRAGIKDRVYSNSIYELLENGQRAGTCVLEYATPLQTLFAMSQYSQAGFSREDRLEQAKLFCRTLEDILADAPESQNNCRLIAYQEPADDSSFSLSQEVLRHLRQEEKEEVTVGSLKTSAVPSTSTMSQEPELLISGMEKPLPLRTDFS

Compound	hSTING FTS binding assay (ΔT C.°) (human STING)	EC50 [1]	EC50 [2]
Cc1cc(CN(Cc2cn(C3CC3)c3cc(F)c(F)cc3c2=O)[C@H]2CCCN(c3cccnc3)C2)ccn1 [Example 12, 1-cyclopropyl-6,7-difluoro-3-({[(2-methylpyridin-4-yl)methyl][(3S)-1-(pyridin-3-yl)piperidin-3-yl]amino}methyl)-1,4-dihydroquinolin-4-one]	++ (ΔTm>10° C.)	≤ 1 µM	≤ 1 µM
Cn1cc(CN(Cc2ccns2)[C@H]2CCCN(c3cccnc3)C2)c(=O)c2ccccc21 [Example 55, 1-methyl-3-({[(3S)-1-(pyridin-3-yl)piperidin-3-yl][(1,2-thiazol-5-yl)methyl]amino}methyl)-1,4-dihydroquinolin-4-one]	+ (ΔTm<10° C.)	≥ 10 µM	≥ 10 µM
Cn1cc(CN(Cc2ccncc2)[C@H]2CCCN(c3cccnc3)C2)c(=O)c2ccccc21 [Example 39, 1-methyl-3-({[(3S)-1-(pyridin-3-yl)piperidin-3-yl][(pyridin-4-yl)methyl]amino}methyl)-1,4-dihydroquinolin-4-one]	++ (ΔTm>10° C.)	≤ 1 µM	1 to 10 µM
Cc1ccc(N2CCC[C@H](N(Cc3ccnc(C)c3)Cc3cn(C4CC4)c4cc(N5CCN(CC(F)F)CC5)c(F)cc4c3=O)C2)cn1 [Example 48, 1-cyclopropyl-7-[4-(2,2-difluoroethyl)piperazin-1-yl]-6-fluoro-3-({[(3S)-1-(6-methylpyridin-3-yl)piperidin-3-yl][(2-methylpyridin-4-yl)methyl]amino}methyl)-1,4-dihydroquinolin-4-one]	++ (ΔTm>10° C.)	≤ 1 µM	≤ 1 µM
COc1cc(CN(Cc2cn(C3CC3)c3cc(N4CCN(C)CC4)c(F)cc3c2=O)[C@H]2CCCN(c3cccnc3)C2)ccn1 [Example 9, 1-cyclopropyl-6-fluoro-3-({[(2-methoxypyridin-4-yl)methyl][(3S)-1-(pyridin-3-yl)piperidin-3-yl]amino}methyl)-7-(4-methylpiperazin-1-yl)-1,4-dihydroquinolin-4-one]	++ (ΔTm>10° C.)	≤ 1 µM	≤ 1 µM
Cc1ccc(N2CCC[C@H](N(Cc3ccnc(C)c3)Cc3cn(C4CC4)c4cc(N5CCN[C@H](C)C5)c(F)cc4c3=O)C2)cn1 [Example 46, 1-cyclopropyl-6-fluoro-7-[(3R)-3-methylpiperazin-1-yl]-3-({[(3S)-1-(6-methylpyridin-3-yl)piperidin-3-yl][(2-methylpyridin-4-yl)methyl]amino}methyl)-1,4-dihydroquinolin-4-one]	++ (ΔTm>10° C.)	≤ 1 µM	≤ 1 µM
Cc1cc(CN(Cc2cn(C)c3ccccc3c2=O)[C@H]2CCCN(c3cccnc3)C2)ccn1 [Example 5, 1-methyl-3-({[(2-methylpyridin-4-yl)methyl][(3S)-1-(pyridin-3-yl)piperidin-3-yl]amino}methyl)-1,4-dihydroquinolin-4-one]	++ (ΔTm>10° C.)	≤ 1 µM	≤ 1 µM
Cc1cc(CN(Cc2cn(C)c3cc(Cl)c(F)cc3c2=O)[C@H]2CCCN(c3cccnc3)C2)ccn1 [Example 25, 7-chloro-6-fluoro-1-methyl-3-({[(2-methylpyridin-4-yl)methyl][(3S)-1-(pyridin-3-yl)piperidin-3-yl]amino}methyl)-1,4-dihydroquinolin-4-one]	++ (ΔTm>10° C.)	≤ 1 µM	≤ 1 µM
Cc1cc(CN(Cc2cn(C)c3cc(N4CCN(C)CC4)ccc3c2=O)[C@H]2CCCN(c3cccnc3)C2)ccn1 [Example 18, 1-methyl-7-(4-methylpiperazin-1-yl)-3-({[(2-methylpyridin-4-yl)methyl][(3S)-1-(pyridin-3-yl)piperidin-3-yl]amino}methyl)-1,4-dihydroquinolin-4-one]	++ (ΔTm>10° C.)	≤ 1 µM	≤ 1 µM
Cc1cc(CN(Cc2cn(C)c3ccccc3c2=O)[C@H]2CCCN(c3ccccn3)C2)ccn1 [Example 13, 1-methyl-3-({[(2-methylpyridin-4-yl)methyl][(3S)-1-(pyridin-2-yl)piperidin-3-yl]amino}methyl)-1,4-dihydroquinolin-4-one]	+ (ΔTm<10° C.)	1 to 10 µM	1 to 10 µM
Cc1ccc(N2CCC[C@H](N(Cc3ccnc(C)c3)Cc3cn(CC(=O)O)c4ccccc4c3=O)C2)cn1 [Example 51, 2-[3-({[(3S)-1-(6-Methylpyridin-3-yl)piperidin-3-yl][(2-methylpyridin-4-yl)methyl]amino}methyl)-4-oxo-1,4-dihydroquinolin-1-yl]acetic acid]	++ (ΔTm>10° C.)	≥ 10 µM	≥ 10 µM
Cc1ccc(N2CCC[C@H](N(Cc3ccnc(C)c3)Cc3c[nH]c4ccccc4c3=O)C2)cn1 [Example 58, 3-({[(3S)-1-(6-methylpyridin-3-yl)piperidin-3-yl][(2-methylpyridin-4-yl)methyl]amino}methyl)-1,4-dihydroquinolin-4-one]	++ (ΔTm>10° C.)	≤ 1 µM	≤ 1 µM
Cc1cc(CN(Cc2cn(C)c3ccccc3c2=O)[C@H]2C[C@@H](C)CN(c3cccnc3)C2)ccn1 [Example 27, 1-methyl-3-({[(3S,5R)-5-methyl-1-(pyridin-3-yl)piperidin-3-yl][(2-methylpyridin-4-yl)methyl]amino}methyl)-1,4-dihydroquinolin-4-one]	+ (ΔTm<10° C.)	≥ 10 µM	≥ 10 µM
Cc1ccc(N2CCC[C@H](N(Cc3ccnc(C)c3)Cc3cn(C4CC4)c4cc(O)c(F)cc4c3=O)C2)cn1 [Example 59, 1-cyclopropyl-6-fluoro-7-hydroxy-3-({[(3S)-1-(6-methylpyridin-3-yl)piperidin-3-yl][(2-methylpyridin-4-yl)methyl]amino}methyl)-1,4-dihydroquinolin-4-one]	++ (ΔTm>10° C.)	≤ 1 µM	1 to 10 µM
Cc1cc(CN(Cc2cn(C)c3ccccc3c2=O)[C@H]2CCCN(c3ncc(Br)cn3)C2)ccn1 [Example 32, 3-({[(3S)-1-(5-bromopyrimidin-2-yl)piperidin-3-yl][(2-methylpyridin-4-yl)methyl]amino}methyl)-1-methyl-1,4-dihydroquinolin-4-one]	+ (ΔTm<10° C.)	1 to 10 µM	1 to 10 µM
Cc1cc(CN(Cc2cn(C)c3ccccc3c2=O)C2CCCN(c3cccnc3)C2)ccn1 (stereo not drawn) [Example 2, 1-methyl-3-({[(2-methylpyridin-4-yl)methyl][1-(pyridin-3-yl)piperidin-3-yl]amino}methyl)-1,4-dihydroquinolin-4-one]	++ (ΔTm>10° C.)	≤ 1 µM	≤ 1 µM
Cc1cc(CN(Cc2cn(C)c3cc(Br)ccc3c2=O)[C@H]2CCCN(c3cccnc3)C2)ccn1 [Example 23, 7-bromo-1-methyl-3-({[(2-methylpyridin-4-yl)methyl][(3S)-1-(pyridin-3-yl)piperidin-3-yl]amino}methyl)-1,4-dihydroquinolin-4-one]	++ (ΔTm>10° C.)	≤ 1 µM	≤ 1 µM
Cc1cc(CN(Cc2cn(C3CC3)c3cc(N4CCN(C)CC4)c(F)cc3c2=O)[C@H]2CCCN(c3cccnc3)C2)ccn1 [Example 10, 1-cyclopropyl-6-fluoro-7-(4-methylpiperazin-1-yl)-3-({[(2-methylpyridin-4-yl)methyl][(3S)-1-(pyridin-3-yl)piperidin-3-yl]amino}methyl)-1,4-dihydroquinolin-4-one]	++ (ΔTm>10° C.)	≤ 1 µM	≤ 1 µM
COc1cc(CN(Cc2cn(C)c3ccccc3c2=O)C2CCCN(c3cccnn3)C2)ccn1 (stereo not drawn) [Example 3, 3-({[(2-methoxypyridin-4-yl)methyl][1-(pyridazin-3-yl)piperidin-3-yl]amino}methyl)-1-methyl-1,4-dihydroquinolin-4-one]	+ (ΔTm<10° C.)	≥ 10 µM	≥ 10 µM
COc1ncc(N2CCC[C@H](N(Cc3ccnc(C)c3)Cc3cn(C)c4ccccc4c3=O)C2)cn1 [Example 8, 3-({[(3S)-1-(2-methoxypyrimidin-5-yl)piperidin-3-yl][(2-methylpyridin-4-yl)methyl]amino}methyl)-1-methyl-1,4-dihydroquinolin-4-one]	+ (ΔTm<10° C.)	≥ 10 µM	≥ 10 µM

Source: patent publication US12344606B2, “Next-generation modulators of stimulator of interferon genes (STING)” (RYVU THERAPEUTICS S.A., priority 2019, dated 2025)
